Measured values as given in patent US7772263B2, “Compounds for the treatment of inflammatory disorders” (Schering Corporation, priority 2006, dated 2010).
Like-named read-outs stand apart in the source and are kept apart here.

Target: T1, purified catalytic domain of recombinant human TACE (rhTACEc) (Homo sapiens, UniProt P78536, N452Q/S266A)
T1 construct: rhTACEc, Residue 215 to 477 with two mutation (S266A and N4520) and a 6×His tail; 6xHis (C); made in house; host or cells: baculovirus/Hi5 insect cells
T1 sequence (P78536 215-477 S266A/N452Q limits assumed): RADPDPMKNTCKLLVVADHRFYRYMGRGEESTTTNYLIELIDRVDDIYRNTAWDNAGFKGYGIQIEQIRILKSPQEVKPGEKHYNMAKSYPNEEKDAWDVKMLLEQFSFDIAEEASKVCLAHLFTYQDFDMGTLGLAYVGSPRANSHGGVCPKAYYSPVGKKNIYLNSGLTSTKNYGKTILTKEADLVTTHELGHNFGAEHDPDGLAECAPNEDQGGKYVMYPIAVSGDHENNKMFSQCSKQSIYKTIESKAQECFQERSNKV
Experiment: TACE kinetic assay, cleavage of internally quenched fluorescent peptide substrate SPDL-3
Assay type: biochemical

[1] = TACE, class letters A-D, read-out: Ki Rating
[2] = rhTACEc 70 pM, 30 μM SPDL-3, 90 min pre-incubation at 25° C., read-out: Ki (nM), TACE inhibitory activity

Row | Ki [1] [nM] | Ki [2] [nM] | Structure (SMILES)
1 | < 5 |  | COc1ccc2c(c1)C(=O)N(C[C@@]1(C#Cc3ccc(-c4nnn(C)n4)s3)NC(=O)NC1=O)C2 [Compound 1220A]
2 | < 5 |  | COc1ccc2c(c1)C(=O)N(C[C@@]1(C#Cc3ccc(C(C)=O)cc3)NC(=O)NC1=O)C2 [Compound 1220B]
3 | > 100 |  | COc1ccc2c(c1)C(=O)N(C[C@@]1(C#Cc3ccc(S(C)(=O)=O)cc3)NC(=O)NC1=O)C2 [Compound 1220C]
4 | < 5 |  | COc1ccc2c(c1)C(=O)N(C[C@@]1(C#Cc3ccc4c(c3)NC(=O)C4=O)NC(=O)NC1=O)C2 [Compound 1220D]
5 | < 5 |  | COc1ccc2c(c1)C(=O)N(C[C@@]1(C#Cc3ncnc4[nH]ccc34)NC(=O)NC1=O)C2 [Compound 1220E]
6 | < 5 |  | COc1ccc2c(c1)C(=O)N(C[C@@]1(C#Cc3cncc(-c4nnn(C(C)C)n4)c3)NC(=O)NC1=O)C2 [Compound 1220]
7 | < 5 |  | COc1ccc2c(c1)C(=O)N(C[C@@]1(C#Cc3cccnc3C3CC3)NC(=O)NC1=O)C2 [Compound 1221]
8 | < 5 |  | COc1ccc2c(c1)C(=O)N(C[C@@]1(C#Cc3cnccc3C3CC3)NC(=O)NC1=O)C2 [Compound 1222]
9 | < 5 |  | COc1ccc2c(c1)C(=O)N(C[C@@]1(C#Cc3ccc(C(N)=O)c([N+](=O)[O-])c3)NC(=O)NC1=O)C2 [Compound 1250]
10 | < 5 |  | COc1ccc2c(c1)C(=O)N(C[C@@]1(C#Cc3ccc4c(c3)C(=O)NC4)NC(=O)NC1=O)C2 [Compound 1251]
11 | < 5 |  | COc1ccc2c(c1)C(=O)N(C[C@@]1(C#Cc3cccc4c3CNC4=O)NC(=O)NC1=O)C2 [Compound 1252]
12 | < 5 |  | COc1ccc2c(c1)C(=O)N(C[C@@]1(C#Cc3ccc4c(c3)CNC4=O)NC(=O)NC1=O)C2 [Compound 1253]
13 | < 5 |  | COc1ccc2c(c1)C(=O)N(C[C@@]1(C#Cc3ccc(-c4cncnc4)nc3)NC(=O)NC1=O)C2 [Compound 1254]
14 | < 5 |  | COc1ccc2c(c1)C(=O)N(C[C@@]1(C#Cc3cnc(-c4cccnc4)nc3)NC(=O)NC1=O)C2 [Compound 1256C]
15 |  | 0.03 | COc1ccc2c(c1)C(=O)N(C[C@@]1(C#Cc3ccc(C4(C)NC(=O)NC4=O)cc3)NC(=O)NC1=O)C2 (stereo partly shown) [Compound 1256]
16 | < 5 |  | COc1ccc2c(c1)C(=O)N(C[C@@]1(C#Cc3ccc(-c4nnc(C)o4)nc3)NC(=O)NC1=O)C2 [Compound 1500]
17 | < 5 |  | COc1ccc2c(c1)C(=O)N(C[C@@]1(C#Cc3ccc(-c4nnc(N)o4)nc3)NC(=O)NC1=O)C2 [Compound 1501]
18 | < 5 | 0.094 | CCNc1nnc(-c2ccc(C#C[C@]3(CN4Cc5ccc(OC)cc5C4=O)NC(=O)NC3=O)cn2)o1 [Compound 1502]
19 | < 5 |  | COc1ccc2c(c1)C(=O)N(C[C@@]1(C#Cc3cnc4ccccn34)NC(=O)NC1=O)C2 [Compound 1503]
20 | < 5 |  | COc1ccc2c(c1)C(=O)N(C[C@@]1(C#Cc3cnc4ccc(Br)cn34)NC(=O)NC1=O)C2 [Compound 1504]
21 | < 5 |  | COc1ccc2c(c1)C(=O)N(C[C@@]1(C#Cc3ccc4nc(C)cn4c3)NC(=O)NC1=O)C2 [Compound 1505]
22 | < 5 |  | COc1ccc2c(c1)C(=O)N(C[C@@]1(C#Cc3n[nH]c4ccccc34)NC(=O)NC1=O)C2 [Compound 1506]
23 | < 5 |  | COc1ccc2c(c1)C(=O)N(C[C@@]1(C#Cc3cc(F)ccn3)NC(=O)NC1=O)C2 [Compound 1507]

Row | Ki [1] [nM] | Ki [2] [nM] | Structure (SMILES)
24 | < 5 |  | COc1ccc2c(c1)C(=O)N(C[C@@]1(C#Cc3c4ccccc4nn3C)NC(=O)NC1=O)C2 [Compound 1508]
25 | < 5 |  | COc1ccc2c(c1)C(=O)N(C[C@@]1(C#Cc3cc(C)ccc3O)NC(=O)NC1=O)C2 [Compound 1509]
26 | < 5 |  | COc1ccc2c(c1)C(=O)N(C[C@@]1(C#Cc3cnn4ccccc34)NC(=O)NC1=O)C2 [Compound 1510]
27 | < 5 |  | COC(=O)c1cc(C#C[C@]2(CN3Cc4ccc(OC)cc4C3=O)NC(=O)NC2=O)ccn1 [Compound 1511]
28 | < 5 |  | COc1ccc2c(c1)C(=O)N(C[C@@]1(C#Cc3ccnc(C(N)=O)c3)NC(=O)NC1=O)C2 [Compound 1512]
29 | < 5 |  | COc1ccc2c(c1)C(=O)N(C[C@@]1(C#Cc3ccc(C(N)=O)nc3)NC(=O)NC1=O)C2 [Compound 1513]
30 | < 5 |  | COC(=O)c1ccc(C#C[C@]2(CN3Cc4ccc(OC)cc4C3=O)NC(=O)NC2=O)cn1 [Compound 1514]
31 | < 5 |  | COc1ccc2c(c1)C(=O)N(C[C@@]1(C#Cc3cnccc3C(N)=O)NC(=O)NC1=O)C2 [Compound 1515]
32 | < 5 |  | COC(=O)c1ccncc1C#C[C@]1(CN2Cc3ccc(OC)cc3C2=O)NC(=O)NC1=O [Compound 1516]
33 | < 5 |  | CNC(=O)c1ccc(C#C[C@]2(CN3Cc4ccc(OC)cc4C3=O)NC(=O)NC2=O)cn1 [Compound 1517]
34 | < 5 |  | COc1ccc2c(c1)C(=O)N(C[C@@]1(C#Cc3ccc(C(=O)NC4CC4)nc3)NC(=O)NC1=O)C2 [Compound 1518]
35 | < 5 |  | COc1ccc2c(c1)C(=O)N(C[C@@]1(C#Cc3cc(C)c(=O)n(C)c3)NC(=O)NC1=O)C2 [Compound 1519]
36 | < 5 |  | COc1ccc2c(c1)C(=O)N(C[C@@]1(C#Cc3ccc4nnn(C)c4c3)NC(=O)NC1=O)C2 [Compound 1520]
37 | < 5 |  | COc1ccc2c(c1)C(=O)N(C[C@@]1(C#Cc3ccc4nc(C(F)(F)F)cn4c3)NC(=O)NC1=O)C2 [Compound 1521]
38 | < 5 |  | COc1ccc2c(c1)C(=O)N(C[C@@]1(C#Cc3ccc4[nH]nnc4c3)NC(=O)NC1=O)C2 [Compound 1522]
39 | < 5 |  | COc1ccc2c(c1)C(=O)N(C[C@@]1(C#Cc3ccc4[nH]ncc4c3)NC(=O)NC1=O)C2 [Compound 1523]
40 | < 5 |  | COc1ccc2c(c1)C(=O)N(C[C@@]1(C#Cc3c[nH]c(=O)c(C)c3)NC(=O)NC1=O)C2 [Compound 1524]
41 | < 5 |  | CC#CCOc1ccc2c(c1)C(=O)N(C[C@@]1(C#Cc3ccc4cn(C)nc4c3)NC(=O)NC1=O)C2 [Compound 1533]
42 | < 5 |  | Cc1cc(COc2ccc3c(c2)C(=O)N(C[C@@]2(C#Cc4cccnc4)NC(=O)NC2=O)C3)c2ccccc2n1 [Compound 1534]
43 | 5 to 25 |  | O=C1NC(=O)C(C#Cc2cnc3ccc(Br)cn23)(CN2Cc3ccc(OC(F)F)cc3C2=O)N1 (stereo not shown) [Compound 1535]
44 | 5 to 25 |  | COc1ccc2c(c1)C(=O)N(C[C@@]1(C#Cc3ccc(C(=O)NS(C)(=O)=O)cc3)NC(=O)NC1=O)C2 [Compound 1550]
45 | < 5 |  | CCS(=O)(=O)NC(=O)c1ccc(C#C[C@]2(CN3Cc4ccc(OC)cc4C3=O)NC(=O)NC2=O)cc1 [Compound 1551]
46 | < 5 |  | COc1ccc2c(c1)C(=O)N(C[C@@]1(C#Cc3cncc(C(C)=NO)c3)NC(=O)NC1=O)C2 [Compound 1552]

Row | Ki [1] [nM] | Ki [2] [nM] | Structure (SMILES)
47 | < 5 |  | COc1ccc2c(c1)C(=O)N(C[C@@]1(C#Cc3ccc(CC(C)=NO)cc3)NC(=O)NC1=O)C2 [Compound 1553]
48 | < 5 |  | COc1ccc2c(c1)C(=O)N(C[C@@]1(C#Cc3ccc4c(C=NO)c[nH]c4c3)NC(=O)NC1=O)C2 [Compound 1554]
49 | < 5 |  | COc1ccc2c(c1)C(=O)N(C[C@@]1(C#Cc3ccc(C4(C)NC(=O)N(C)C4=O)cc3)NC(=O)NC1=O)C2 (stereo partly shown) [Compound 1555]
50 | < 5 |  | COc1ccc2c(c1)C(=O)N(C[C@@]1(C#Cc3cccc(C4(C)NC(=O)NC4=O)c3)NC(=O)NC1=O)C2 (stereo partly shown) [Compound 1556]
51 | < 5 |  | COc1ccc2c(c1)C(=O)N(C[C@@]1(C#Cc3ccc4c(c3)C(=O)C(=O)N4)NC(=O)NC1=O)C2 [Compound 1557]
52 | 5 to 25 |  | COc1ccc2c(c1)C(=O)N(CC1(C#Cc3cccnc3)NC(=O)NC1=O)CC2 (stereo not shown) [Compound 1558]
53 | < 5 |  | COc1ccc2c(c1)C(=O)N(C[C@@]1(C#Cc3ccc(C)nc3N)NC(=O)NC1=O)C2 [Compound 1559]
54 | < 5 |  | COc1ccc2c(c1)C(=O)N(C[C@@]1(C#Cc3ccc4oc(=O)[nH]c4c3)NC(=O)NC1=O)C2 [Compound 1560]
55 | < 5 |  | COc1ccc2c(c1)C(=O)N(C[C@@]1(C#Cc3cncnc3N)NC(=O)NC1=O)C2 [Compound 1561]
56 | < 5 |  | COc1ccc2c(c1)C(=O)N(C[C@@]1(C#Cc3ccc(C4(CN)NC(=O)NC4=O)cc3)NC(=O)NC1=O)C2 (stereo partly shown) [Compound 1562]
57 | < 5 |  | COc1ccc2c(c1)C(=O)N(C[C@@]1(C#Cc3ccc(F)nc3)NC(=O)NC1=O)C2 [Compound 1563]
58 | 5 to 25 |  | COc1ccc2c(c1Br)C(=O)N(CC1(C#Cc3cccnc3)NC(=O)NC1=O)C2 (stereo not shown) [Compound 1564]
59 | < 5 |  | CON=C(C)c1ccc(C#C[C@]2(CN3Cc4ccc(OC)cc4C3=O)NC(=O)NC2=O)cc1 [Compound 1565]
60 | < 5 |  | COc1ccc2c(c1)C(=O)N(C[C@@]1(C#Cc3ccc4[nH]c(=O)[nH]c(=O)c4c3)NC(=O)NC1=O)C2 [Compound 1566]
61 | < 5 |  | COc1ccc2c(c1)C(=O)N(C[C@@]1(C#Cc3cnc(O)nc3N)NC(=O)NC1=O)C2 [Compound 1567]
62 | < 5 |  | COc1ccc2c(c1)C(=O)N(C[C@@]1(C#Cc3cnc4c(c3)CCC(=O)N4)NC(=O)NC1=O)C2 [Compound 1568]
63 | < 5 |  | COc1ccc2c(c1)C(=O)N(C[C@@]1(C#Cc3cc4ccccc4[nH]c3=O)NC(=O)NC1=O)C2 [Compound 1569]
64 | < 5 |  | COc1ccc2c(c1)C(=O)N(C[C@@]1(C#Cc3ccc(C(=O)NS(=O)(=O)C4CC4)cc3)NC(=O)NC1=O)C2 [Compound 1570]
65 | < 5 |  | COc1ccc2c(c1)C(=O)N(C[C@@]1(C#Cc3cnc(Cl)c(O)c3)NC(=O)NC1=O)C2 [Compound 1571]
66 | < 5 |  | COc1ccc2c(c1)C(=O)N(C[C@@]1(C#Cc3cnc(N4CCSCC4)nc3N)NC(=O)NC1=O)C2 [Compound 1572]
67 | < 5 |  | COc1ccc2c(c1)C(=O)N(C[C@@]1(C#Cc3cnc(Cl)nc3N)NC(=O)NC1=O)C2 [Compound 1573]
68 | < 5 |  | COc1ccc2c(c1)C(=O)N(C[C@@]1(C#Cc3ccc(OC4SC(=O)NC4=O)cc3)NC(=O)NC1=O)C2 (stereo partly shown) [Compound 1574]
69 | < 5 |  | COc1ccc2c(c1)C(=O)N(C[C@@]1(C#Cc3ccc(C(C)=NO)nc3)NC(=O)NC1=O)C2 [Compound 1575]
